Earlier results, collected in patent US8241397B2, “Adsorptive gas sampler using ionic nano-droplets” (Honeywell International Inc., priority 2008, dated 2012).

Conditions: water uptake

Row | SMILES | Solubility of solvent H2O in ionic liquid (% w/w)
1 | CCCCn1cc[n+](C)c1.O=S(=O)([N-]S(=O)(=O)C(F)(F)F)C(F)(F)F [[C4MIM][TF2N], [C4MIM] bis(trifluoromethylsulfonyl) imide] | 1.17
2 | CCCCCCn1cc[n+](C)c1.O=S(=O)([N-]S(=O)(=O)C(F)(F)F)C(F)(F)F [[C6MIM][TF2N]] | 0.88
3 | CCCCCCCCn1cc[n+](C)c1.O=S(=O)([N-]S(=O)(=O)C(F)(F)F)C(F)(F)F [[C8MIM][TF2N]] | 0.74
